Source: PMC11357161, “Phytochemical Analysis, Biological Activities, and Docking of Phenolics from Shoot Cultures of Hypericum perforatum L. Transformed by Agrobacterium rhizogenes” (Molecules, 2024)
Marks after values point to notes of the source that are not given here.

How the values were obtained:
Format in all cases: biochemical
[1] = target: T1, monoamine oxidase-A (MAO-A) (Homo sapiens, UniProt P21397); test: MAO-A inhibitory activity in vitro
T1 sequence (P21397 1-527): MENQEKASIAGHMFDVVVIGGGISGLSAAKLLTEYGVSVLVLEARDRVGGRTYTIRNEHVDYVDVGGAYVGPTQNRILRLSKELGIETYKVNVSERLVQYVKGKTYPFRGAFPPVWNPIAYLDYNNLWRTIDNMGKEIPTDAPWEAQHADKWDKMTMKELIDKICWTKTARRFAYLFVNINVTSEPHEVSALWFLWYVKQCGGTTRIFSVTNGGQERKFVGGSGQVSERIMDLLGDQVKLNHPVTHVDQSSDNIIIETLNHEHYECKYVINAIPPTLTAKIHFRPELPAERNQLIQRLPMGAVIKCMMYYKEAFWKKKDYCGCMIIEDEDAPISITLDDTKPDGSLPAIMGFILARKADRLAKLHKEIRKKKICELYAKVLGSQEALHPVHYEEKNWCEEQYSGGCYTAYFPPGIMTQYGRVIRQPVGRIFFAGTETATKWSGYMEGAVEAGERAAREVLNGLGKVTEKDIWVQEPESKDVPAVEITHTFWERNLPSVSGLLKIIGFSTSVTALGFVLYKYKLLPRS
Procedure: (§1) Shoot methanolic extracts were evaporated in a freeze-dryer (Labconco, Kansas City, MO, USA), and dry extracts were dissolved in 50% dimethyl sulfoxide. […] The protocols for MAO-A, AChE, BChE, TYR, α-AM, α-GL, PL, and CHE inhibitory activities were presented in our previous studies. […] Three replicates were used for all enzyme-inhibitory tests.

[2] = target: T2, cholesterol esterase (CHE) (Homo sapiens, UniProt P19835); test: CHE inhibitory activity in vitro; conditions: concentration that inhibits 50% of enzyme activity; mean ± SD, three replicates
T2 sequence (P19835 21-753): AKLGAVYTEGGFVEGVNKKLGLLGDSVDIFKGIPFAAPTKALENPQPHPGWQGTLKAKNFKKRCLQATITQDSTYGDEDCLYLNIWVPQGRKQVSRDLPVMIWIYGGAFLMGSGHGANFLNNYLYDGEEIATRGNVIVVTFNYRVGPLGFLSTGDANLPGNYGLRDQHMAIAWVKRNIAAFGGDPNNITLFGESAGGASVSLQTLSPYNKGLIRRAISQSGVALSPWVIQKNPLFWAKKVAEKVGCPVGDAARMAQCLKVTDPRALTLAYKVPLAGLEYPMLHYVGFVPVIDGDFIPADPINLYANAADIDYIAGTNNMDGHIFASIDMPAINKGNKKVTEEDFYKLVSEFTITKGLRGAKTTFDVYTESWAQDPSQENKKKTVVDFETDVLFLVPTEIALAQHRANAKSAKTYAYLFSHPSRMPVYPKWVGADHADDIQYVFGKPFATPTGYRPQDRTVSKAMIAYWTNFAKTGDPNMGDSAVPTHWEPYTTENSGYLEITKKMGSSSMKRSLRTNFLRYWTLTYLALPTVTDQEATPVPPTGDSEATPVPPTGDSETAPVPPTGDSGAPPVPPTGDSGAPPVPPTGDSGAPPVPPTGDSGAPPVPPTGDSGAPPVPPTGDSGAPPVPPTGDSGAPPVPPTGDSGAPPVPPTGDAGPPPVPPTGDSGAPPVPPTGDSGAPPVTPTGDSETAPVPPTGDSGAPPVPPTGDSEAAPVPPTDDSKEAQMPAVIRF
Procedure: as §1

α-amylase (α-AM) = α-amylase (α-AM) (Aspergillus oryzae, UniProt P0C1B3); test: α-AM inhibitory activity in vitro; conditions: concentration that inhibits 25% of enzyme activity; mean ± SD, three replicates
Procedure: as §1

In the case of `Oc1ccc(Cl)cc1Cl` [DCP, 2,4-dichlorophenol], the IC50 [1] is reported as 226 µM.
Compound `CCC(C)(C)C(=O)O[C@H]1C[C@@H](C)C=C2C=C[C@H](C)[C@H](CC[C@@H]3C[C@@H](O)CC(=O)O3)[C@H]21` [Simvastatin] has an IC50 [2] of 383 µM.
With `C[C@H]1O[C@H](O[C@H]2[C@H](O)[C@@H](O)[C@@H](O[C@H]3[C@H](O)[C@@H](O)C(O)O[C@@H]3CO)O[C@@H]2CO)[C@H](O)[C@@H](O)[C@@H]1N[C@H]1C=C(CO)[C@@H](O)[C@H](O)[C@H]1O` (stereo partly drawn) [Acarbose] the “α-AM (IC25)” value (α-amylase (α-AM)) was 6.77 ± 0.76 ^a µg·mL^−1.
